Data published in US20260234150A1, “COMPOUND FOR INHIBITING NLRP3, PREPARATION METHOD, AND USE” (DOVETREE MEDICINES UNUS, INC., priority 2023, published 2026).
Where two headings read alike, the source gives them in different places.

Key:
[1] = Liver microsome metabolic stability, mouse; assay type: in vitro ADME; details: mouse liver microsomes, 45 min incubation
Protocol: Purpose: This experiment investigates the metabolic stability of the compound in liver microsomes of different species such as humans, mice and rats, and the residual content of the test compound after incubation with liver microsomes of different species such as humans, mice and rats.
Preparation of 500 μM solution of target compound and positive control: 5 μL of each 10 mM stock solution was taken, added to 95 μL acetonitrile, and mixed for 30 s;
Preparation of 6 mM NADPH solution: 100 mM Stock aliquot liquid was diluted with Mg-Mg —K-Buffer.
2.1.1 Liver microsome solution: 18.75 μL of 20 mg/mL HLM, RLM, MLM, DLM, MOLM (final concentration: 0.5 mg/ml) were taken and placed them in each well of a 96-well plate;
2.1.2 1.5 μL of 500 μM solution of each compound was added respectively;
2.1.3 479.8 μL of phosphate buffer was taken, then added to each compound well, and mixed at 1000 rpm in an oscillating mixer for 10 s.
30 μL of the above samples were taken and aliquoted to a new 96-well plates respectively (including NADPH group, n=2, and no NADPH group at 0 and 45 min, n=1), marked as 0, 5, 15, 30 and 45 min; […]
The slope was calculated based on the LN value of the compound concentration percentage and time as the coordinate axis, and the residual content of the compound after incubation with liver microsomes was calculated based on the slope and formula. […]

[2] = Pharmacokinetic evaluation in rats; assay type: in vivo; details: rat, plasma, SD male rats
Protocol: Purpose: The test animals were SD male rats. The LC-MS/MS method was used to quantitatively determine the drug concentration in the plasma of rats at different time points after intravenous injection or oral administration of the test compound to evaluate the pharmacokinetic characteristics of the test drug in rats.
SD rats (male, 160-300 g, 5-10 weeks old, Shanghai Xipu-Bikai Experimental Animal Co., Ltd.)
The clear solution of the test compound was injected into SD rats via the tail vein (without fasting) (vehicle: 5% DMSO/10% Solutol/85% Saline), and the clear solution of the test compound was administered to SD rats by gavage (fasting for 10-14 h, free access to water) (vehicle: 5% DMSO/10% Solutol/85% Saline). For intravenous administration, blood was collected from the jugular vein at 0.033, 0.083, 0.25, 0.5, 1, 2, 4, 8, and 24 hrs after administration, placed in an EDTA-K2 anticoagulant tube (Jiangsu Kangjian Medical Supplies Co., Ltd.), mixed, and centrifuged at 2-8° C., 6800 g for 6 minutes to obtain plasma; for oral gavage administration, blood was collected from the jugular vein at 0.083, 0.25, 0.5, 1, 2, 4, 6, 8, and 24 hrs after administration, placed in an EDTA-K2 anticoagulant tube (Jiangsu Kangjian Medical Supplies Co., Ltd.), mixed, and centrifuged at 2-8° C., 6800 g for 6 minutes to obtain plasma. The plasma concentration was determined by LC-MS/MS, and the relevant pharmacokinetic parameters were calculated by the non-compartmental linear logarithmic trapezoidal method using Phoenix WinNonlinTM Version 7.0 (Pharsight, USA) pharmacokinetic software. The compounds of the present disclosure have good pharmacokinetic characteristics in rats.

- LMS (m)(% rem, 45 min) [1]: 91.34 % rem
- clearance ([2]; 1 mg/kg, Dosage IV/PO 1/3 mg/kg): 5.78 mL/min/kg
- Vd ([2]; 1 mg/kg, Dosage IV/PO 1/3 mg/kg, read-out: Vdss): 1.02 L/kg
- Cmax ([2]; Dosage IV/PO 1/3 mg/kg): 1390 ng/mL
- bioavailability ([2]; Dosage IV/PO 1/3 mg/kg): 94%
- AUC(0-t) ([2]; IV 1 mg/kg, read-out: AUC0-last IV): 2880 ng·h/mL
- half-life ([2]; IV 1 mg/kg, read-out: T1/2 (IV, h) (converted)): 3.36 h
- AUC(0-t) ([2]; PO 3 mg/kg, read-out: AUC0-last PO): 8120 ng·h/mL
Compound: CC(=O)N1CCOC[C@H]1CNc1nc2nc(-c3c(C)cc(C(F)(F)F)cc3O)ccc2o1 [Compound 111]
